In ChEMBL document CHEMBL1629525, “Synthesis and characterization of 1,3-dihydro-benzo[b][1,4]diazepin-2-one derivatives: Part 4. In vivo active potent and selective non-competitive metabotropic glutamate receptor 2/3 antagonists” (Bioorg Med Chem Lett, 2010):
In brackets after ≈: the same amount, converted by molar mass. Blank lines part the entries; values can stand above or below the molecule they belong to. Activity calls are given as the source filed them. No cut-off for these calls is given here.

Assays:
[1] = target: T1, Metabotropic glutamate receptor 2 (Rattus norvegicus, UniProt P31421); assay: Partial displacement of [3H]LY354740 from recombinant rat mGluR2
T1 sequence (P31421 whole entry): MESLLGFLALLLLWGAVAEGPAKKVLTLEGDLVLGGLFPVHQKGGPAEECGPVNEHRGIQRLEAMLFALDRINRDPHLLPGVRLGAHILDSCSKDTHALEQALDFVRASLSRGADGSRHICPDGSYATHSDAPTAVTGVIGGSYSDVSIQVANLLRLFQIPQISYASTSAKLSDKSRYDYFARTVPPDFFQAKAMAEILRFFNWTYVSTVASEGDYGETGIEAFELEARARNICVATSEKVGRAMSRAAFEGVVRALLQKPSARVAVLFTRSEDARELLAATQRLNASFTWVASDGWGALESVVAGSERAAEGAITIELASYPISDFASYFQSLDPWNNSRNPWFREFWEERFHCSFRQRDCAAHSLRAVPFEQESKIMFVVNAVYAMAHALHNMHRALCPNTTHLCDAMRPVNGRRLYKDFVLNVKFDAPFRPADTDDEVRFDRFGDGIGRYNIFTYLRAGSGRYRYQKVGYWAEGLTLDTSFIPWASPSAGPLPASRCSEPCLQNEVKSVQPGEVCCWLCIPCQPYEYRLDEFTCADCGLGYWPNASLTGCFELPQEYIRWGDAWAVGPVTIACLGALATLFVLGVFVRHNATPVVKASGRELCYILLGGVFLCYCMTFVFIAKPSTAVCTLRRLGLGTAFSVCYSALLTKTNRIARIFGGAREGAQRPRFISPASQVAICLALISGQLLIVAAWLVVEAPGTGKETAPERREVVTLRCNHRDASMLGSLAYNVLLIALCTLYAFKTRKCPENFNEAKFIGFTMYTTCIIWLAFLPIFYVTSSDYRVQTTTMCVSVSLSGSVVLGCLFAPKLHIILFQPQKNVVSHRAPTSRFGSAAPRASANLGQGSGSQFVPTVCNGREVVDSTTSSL

[2] = target: T1, Metabotropic glutamate receptor 2; assay: Antagonist activity at recombinant rat mGluR2 expressed in forskolin-stimulated CHO cells assessed as inhibition of (1S,3R)-ACPD induced cAMP production; format: functional, cell-based
[3] = target: T1, Metabotropic glutamate receptor 2; assay: Antagonist activity at rat mGluR2 receptor expressed in CHO cells assessed as inhibition of GIRK current; format: functional, cell-based
[4] = target: Metabotropic glutamate receptor 3 (Rattus norvegicus, UniProt P31422); assay: Antagonist activity at rat mGluR3 receptor expressed in CHO cells assessed as inhibition of GIRK current; format: functional, cell-based
Sequence of Metabotropic glutamate receptor 3 (P31422 whole entry): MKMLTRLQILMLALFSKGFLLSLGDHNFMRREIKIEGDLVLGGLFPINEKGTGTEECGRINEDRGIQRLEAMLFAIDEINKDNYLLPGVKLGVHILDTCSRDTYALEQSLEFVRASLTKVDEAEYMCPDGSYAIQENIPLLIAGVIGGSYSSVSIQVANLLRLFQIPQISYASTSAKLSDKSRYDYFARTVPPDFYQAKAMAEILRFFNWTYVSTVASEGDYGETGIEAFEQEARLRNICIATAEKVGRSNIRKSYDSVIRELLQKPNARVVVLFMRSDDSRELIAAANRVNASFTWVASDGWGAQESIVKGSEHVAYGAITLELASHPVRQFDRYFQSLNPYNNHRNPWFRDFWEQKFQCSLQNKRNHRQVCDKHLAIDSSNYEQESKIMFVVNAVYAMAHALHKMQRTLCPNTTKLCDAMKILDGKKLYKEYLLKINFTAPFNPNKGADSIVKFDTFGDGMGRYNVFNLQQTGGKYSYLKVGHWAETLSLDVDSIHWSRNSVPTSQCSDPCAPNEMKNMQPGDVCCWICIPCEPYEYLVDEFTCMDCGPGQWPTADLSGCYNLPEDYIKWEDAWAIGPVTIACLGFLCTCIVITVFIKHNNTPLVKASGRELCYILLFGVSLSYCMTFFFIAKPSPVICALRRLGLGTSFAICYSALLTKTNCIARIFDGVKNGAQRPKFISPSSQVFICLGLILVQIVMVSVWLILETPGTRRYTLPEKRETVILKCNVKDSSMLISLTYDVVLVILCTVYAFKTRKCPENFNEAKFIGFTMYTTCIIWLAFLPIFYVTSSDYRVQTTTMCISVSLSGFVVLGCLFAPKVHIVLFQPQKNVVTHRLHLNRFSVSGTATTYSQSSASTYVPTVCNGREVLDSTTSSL

[5] = target: Metabotropic glutamate receptor 2 (Homo sapiens, UniProt Q14416); assay: Antagonist activity at human mGluR2 receptor expressed in CHO cells assessed as inhibition of GIRK current; format: functional, cell-based
Sequence of Metabotropic glutamate receptor 2 (Homo sapiens, UniProt Q14416) (Q14416 whole entry): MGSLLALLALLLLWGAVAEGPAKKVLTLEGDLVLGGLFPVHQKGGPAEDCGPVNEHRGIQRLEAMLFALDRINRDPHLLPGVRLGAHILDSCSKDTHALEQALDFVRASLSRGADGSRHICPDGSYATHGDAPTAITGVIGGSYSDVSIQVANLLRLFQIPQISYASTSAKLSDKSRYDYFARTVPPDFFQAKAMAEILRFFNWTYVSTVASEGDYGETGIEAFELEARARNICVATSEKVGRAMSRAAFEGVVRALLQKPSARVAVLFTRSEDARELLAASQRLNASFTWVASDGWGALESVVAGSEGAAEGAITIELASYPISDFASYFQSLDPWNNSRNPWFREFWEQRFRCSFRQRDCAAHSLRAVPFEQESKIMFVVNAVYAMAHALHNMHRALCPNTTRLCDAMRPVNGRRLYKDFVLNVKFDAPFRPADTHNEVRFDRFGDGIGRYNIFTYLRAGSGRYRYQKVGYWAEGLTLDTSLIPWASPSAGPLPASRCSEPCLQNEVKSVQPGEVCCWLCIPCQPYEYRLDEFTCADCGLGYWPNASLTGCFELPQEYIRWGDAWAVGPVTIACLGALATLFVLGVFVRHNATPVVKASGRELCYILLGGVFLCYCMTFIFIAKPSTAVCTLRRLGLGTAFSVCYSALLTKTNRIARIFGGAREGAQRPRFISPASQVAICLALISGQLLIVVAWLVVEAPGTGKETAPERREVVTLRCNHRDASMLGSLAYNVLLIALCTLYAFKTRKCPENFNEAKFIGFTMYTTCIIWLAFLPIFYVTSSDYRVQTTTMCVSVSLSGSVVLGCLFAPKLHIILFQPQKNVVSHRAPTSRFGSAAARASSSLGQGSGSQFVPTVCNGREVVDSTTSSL

Cytochrome P450 3A4 = Cytochrome P450 3A4 (Homo sapiens, UniProt P08684); assay: Inhibition of CYP3A4; format: ADME
Sequence of Cytochrome P450 3A4 (P08684 whole entry): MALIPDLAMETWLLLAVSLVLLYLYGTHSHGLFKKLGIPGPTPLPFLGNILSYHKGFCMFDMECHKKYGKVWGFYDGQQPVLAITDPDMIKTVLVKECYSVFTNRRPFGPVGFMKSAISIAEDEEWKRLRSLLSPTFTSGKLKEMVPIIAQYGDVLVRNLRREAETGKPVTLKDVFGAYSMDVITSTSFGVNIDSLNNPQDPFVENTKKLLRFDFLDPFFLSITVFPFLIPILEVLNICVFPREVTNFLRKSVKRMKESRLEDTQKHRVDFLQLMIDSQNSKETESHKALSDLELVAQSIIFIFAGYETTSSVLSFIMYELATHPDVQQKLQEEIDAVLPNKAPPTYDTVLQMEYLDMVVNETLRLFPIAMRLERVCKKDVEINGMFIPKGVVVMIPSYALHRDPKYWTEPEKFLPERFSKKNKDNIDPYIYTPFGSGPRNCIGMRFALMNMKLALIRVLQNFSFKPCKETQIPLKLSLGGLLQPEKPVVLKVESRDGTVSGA

[6] = Thermodynamic solubility of the compound at pH 3; format: physicochemical; settings: buffer
Liver microsomes = assay: Clearance in rat liver microsomes; format: ADME, Microsome
[7] = Half life in rat at 2.5 mg/kg, iv; format: ADME, organism-based; parameters: dose 2.5 mg/kg, route intravenous; settings: in vivo
[8] = Volume of dustribution at steady state in rat at 2.5 mg/kg, iv; format: ADME, organism-based; parameters: dose 2.5 mg/kg, route intravenous; settings: in vivo, read-out: Vdss
[9] = Clearance in rat at 2.5 mg/kg, iv; format: ADME, organism-based; parameters: dose 2.5 mg/kg, route intravenous; settings: in vivo
[10] = Oral bioavailability in rat at 10 mg/kg, po; format: ADME, organism-based; settings: in vivo
[11] = Ratio of drug level in brain to plasma in rat; format: ADME; settings: brain and plasma
Rattus norvegicus [12] = assay: Agonist activity at rat mGluR2 assessed as decrease in spontaneous locomotor activity at 10 mg/kg, sc after 30 mins; format: functional, organism-based; parameters: dose 10 mg/kg
Rattus norvegicus [13] = assay: Agonist activity at rat mGluR3 assessed as decrease in spontaneous locomotor activity at 10 mg/kg, sc after 30 mins; format: functional, organism-based; parameters: dose 10 mg/kg
Rattus norvegicus [14] = assay: Antagonist activity at rat mGluR2 assessed as inhibition of LY354740-induced hypoactivity at 10 mg/kg, po; format: functional, organism-based; parameters: dose 10 mg/kg
Rattus norvegicus [15] = assay: Antagonist activity at rat mGluR3 assessed as inhibition of LY354740-induced hypoactivity at 10 mg/kg, po; format: functional, organism-based; parameters: dose 10 mg/kg
Rattus norvegicus [16] = species on record: Rattus norvegicus; assay: Induction of working memory impairment in rat by DMTP test; format: functional, organism-based
Rattus norvegicus [17] = species on record: Rattus norvegicus; assay: Amnesic activity in rat assessed as missed trials by DMTP test; format: functional, organism-based
Rattus norvegicus [18] = species on record: Rattus norvegicus; assay: Amnesic activity in rat assessed as latency to response by DMTP test; format: functional, organism-based
Rattus norvegicus [19] = assay: Antiamnesic activity in rat assessed as partial inhibition of LY354740-induced impairment of working memory at 3 mg/kg, po by DMTP test; format: functional, organism-based; parameters: dose 3 mg/kg
Rattus norvegicus [20] = species on record: Rattus norvegicus; assay: Antiamnesic activity in rat assessed as inhibition of LY354740-induced impairment of working memory by DMTP test; format: functional, organism-based
Rhesus monkey = assay: Induction of working memory impairment in Rhesus monkey by DMTP test; format: functional, organism-based; settings: Macaca mulatta
Homo sapiens = species on record: Homo sapiens; assay: Induction of cognitive impairment in human; format: functional, organism-based
Rattus norvegicus [21] = assay: Antiamnesic activity in rat assessed as partial reversal of scopolamine-induced impairment of working memory at 3 mg/kg, po by DMTP test; format: functional, organism-based; parameters: dose 3 mg/kg
Rattus norvegicus [22] = assay: Antiamnesic activity in rat assessed as partial reversal of scopolamine-induced impairment of working memory at 0.06 mg/kg, sc by DMTP test; format: functional, organism-based; parameters: dose 0.06 mg/kg
Rattus norvegicus [23] = assay: Neurotoxicity in rat assessed as antidepressant-like activity at 1 mg/kg after 35 to 180 mins, po; format: toxicity, organism-based; parameters: dose 1 mg/kg, route oral; settings: in vivo
Rattus norvegicus [24] = assay: Neurotoxicity in rat assessed as locomotor activity upto 30 mg/kg, po by rotarod test; format: toxicity, organism-based; parameters: dose 30 mg/kg, route oral; settings: in vivo
Rattus norvegicus [25] = assay: Neurotoxicity in rat assessed as effect on grip strength upto 30 mg/kg, po; format: toxicity, organism-based; parameters: dose 30 mg/kg, route oral; settings: in vivo
Rattus norvegicus [26] = assay: Neurotoxicity in rat assessed as effect on spontaneous locomotor activity upto 30 mg/kg, po; format: toxicity, organism-based; parameters: dose 30 mg/kg, route oral; settings: in vivo
Rattus norvegicus [27] = assay: Antiamnesic activity in rat assessed as partial inhibition of LY354740-induced impairment of working memory at 10 mg/kg, po by DMTP test; format: functional, organism-based; parameters: dose 10 mg/kg

IC50 [1]: 14 nM
IC50 [2]: 160 nM
SMILES: Cc1cc2c(cc1C(F)(F)F)NC(=O)CC(c1cccc(-c3ccc(N)nc3)c1)=N2

IC50 [1]: 10 nM
IC50 [2]: 26 nM
IC50 [3]: 101 nM
IC50 [4]: 29 nM
IC50 [5]: 52 nM
SMILES: O=C1CC(c2cccc(-c3ccncc3)c2)=Nc2ccc(C(F)(F)F)cc2N1

IC50 [1]: 66 nM
SMILES: Cc1cc2c(cc1C(F)(F)F)NC(=O)CC(c1cccc(-c3ccnc(C(F)(F)F)c3)c1)=N2

IC50 [1]: 59 nM
SMILES: Cc1cc2c(cc1C(F)(F)F)NC(=O)CC(c1cccc(-c3ccnc(-n4cccc4)c3)c1)=N2

IC50 [1]: 350 nM
SMILES: Cc1nc(-c2cccc(C3=Nc4ccc(C(F)(F)F)cc4NC(=O)C3)c2)co1

IC50 [1]: 13 nM
IC50 [2]: 5 nM
SMILES: Cc1ccc(-c2cccc(C3=Nc4cc(C)c(C(F)(F)F)cc4NC(=O)C3)c2)cn1

IC50 [1]: 13 nM
IC50 [2]: 6 nM
SMILES: COCc1cc(-c2cccc(C3=Nc4cc(C)c(C(F)(F)F)cc4NC(=O)C3)c2)ccn1

IC50 [1]: 6 nM
IC50 [2]: 20 nM
SMILES: Cc1cc2c(cc1C(F)(F)F)NC(=O)CC(c1cccc(-c3ccc(C4CC4)nc3)c1)=N2

SMILES: Cc1cc2c(cc1C(F)(F)F)NC(=O)CC(c1cccc(-c3ccnc(N4CCOCC4)c3)c1)=N2
IC50 [1]: 29 nM

IC50 [1]: 18 nM
IC50 [2]: 36 nM
IC50 [4]: 17 nM
IC50 [5]: 25 nM
SMILES: Cc1cc(-c2cccc(C3=Nc4ccc(C(F)(F)F)cc4NC(=O)C3)c2)ccn1

IC50 [1]: 12 nM
IC50 [2]: 27 nM
IC50 [3]: 11 nM
IC50 [4]: 33 nM
SMILES: O=C1CC(c2cccc(-n3ccnn3)c2)=Nc2ccc(-c3ccccc3F)cc2N1

SMILES: Cc1cc2c(cc1C(F)(F)F)NC(=O)CC(c1cccc(-c3cccnn3)c1)=N2
IC50 [1]: 128 nM

IC50 [1]: 18 nM
IC50 [2]: 72 nM
SMILES: Cc1cc2c(cc1C(F)(F)F)NC(=O)CC(c1cccc(-c3ccnnc3)c1)=N2

IC50 [1]: 9 nM
IC50 [2]: 18 nM
SMILES: CCc1ccc(-c2cccc(C3=Nc4cc(C)c(C(F)(F)F)cc4NC(=O)C3)c2)cn1

IC50 [1]: 26 nM
IC50 [2]: 30 nM
SMILES: Cc1cc2c(cc1C(F)(F)F)NC(=O)CC(c1cccc(-c3ccccn3)c1)=N2

IC50 [1]: 20 nM
IC50 [2]: 16 nM
SMILES: Cc1cc2c(cc1C(F)(F)F)NC(=O)CC(c1cccc(-c3cnccn3)c1)=N2

IC50 [1]: 8 nM
IC50 [2]: 5 nM
SMILES: CCc1cc(-c2cccc(C3=Nc4cc(C)c(C(F)(F)F)cc4NC(=O)C3)c2)ccn1

IC50 [1]: 13 nM
IC50 [2]: 16 nM
SMILES: COc1cc(-c2cccc(C3=Nc4cc(C)c(C(F)(F)F)cc4NC(=O)C3)c2)ccn1

IC50 [1]: 120 nM
SMILES: Cc1cc2c(cc1C(F)(F)F)NC(=O)CC(c1cccc(-n3nncc3CO)c1)=N2

IC50 [1]: 10 nM
IC50 [2]: 10 nM
SMILES: Cc1cc2c(cc1C(F)(F)F)NC(=O)CC(c1cccc(-c3ccc(C(C)C)nc3)c1)=N2

IC50 [1]: 39 nM
IC50 [2]: 190 nM
SMILES: Cn1nccc1-c1cccc(C2=Nc3ccc(C(F)(F)F)cc3NC(=O)C2)c1

IC50 (Cytochrome P450 3A4): < 100 nM
SMILES: Cc1cc2c(cc1C(F)(F)F)NC(=O)CC(c1cccc(-n3ccnc3)c1)=N2

IC50 [1]: 2 nM
IC50 [2]: 3 nM
IC50 (Cytochrome P450 3A4): 4800 nM
solubility thermodynamic [6]: 64 µg/mL (≈ 151 µM)
CL (Liver microsomes): 4.7 mL/min/kg
half-life [7]: 12.8 h
Vd [8]: 5.8 L/kg
clearance [9]: 5.7 mL/min/kg
bioavailability [10]: 52%
Kp [11]: 1.4
IC50 [3]: < 10 nM
IC50 [4]: < 10 nM
IC50 [5]: 14 nM
SMILES: Cc1cc(-c2cccc(C3=Nc4cc(C)c(C(F)(F)F)cc4NC(=O)C3)c2)cc(C)n1
Activity (Rattus norvegicus [12]): Dose-dependent effect
Activity (Rattus norvegicus [13]): Dose-dependent effect
Activity (Rattus norvegicus [14]): Active
Activity (Rattus norvegicus [15]): Active
Activity (Rattus norvegicus [16]): Dose-dependent effect
Activity (Rattus norvegicus [17]): Dose-dependent effect
Activity (Rattus norvegicus [18]): Dose-dependent effect
Activity (Rattus norvegicus [19]): Dose-dependent effect
Activity (Rattus norvegicus [20]): Active
Activity (Rhesus monkey): Active
Activity (Homo sapiens): Active
Activity (Rattus norvegicus [21]): Active
Activity (Rattus norvegicus [22]): Active
Activity (Rattus norvegicus [23]): Toxic
Activity (Rattus norvegicus [24]): Non-toxic
Activity (Rattus norvegicus [25]): Non-toxic
Activity (Rattus norvegicus [26]): Non-toxic
Activity (Rattus norvegicus [27]): Active

IC50 [1]: 6 nM
IC50 [2]: 50 nM
SMILES: Cc1cc2c(cc1C(F)(F)F)NC(=O)CC(c1cccc(-c3ccncn3)c1)=N2

SMILES: Cc1cc(-c2cccc(C3=Nc4cc(C)c(C(F)(F)F)cc4NC(=O)C3)c2)ccn1
IC50 [1]: 4 nM
IC50 [2]: 4 nM
IC50 (Cytochrome P450 3A4): 1900 nM
solubility thermodynamic [6]: 45 µg/mL (≈ 110 µM)
CL (Liver microsomes): 0.8 mL/min/kg
IC50 [3]: 13 nM
IC50 [4]: 14 nM
IC50 [5]: 41 nM

IC50 [1]: 4 nM
IC50 [2]: 10 nM
SMILES: Cc1cc2c(cc1C(F)(F)F)NC(=O)CC(c1cccc(-c3ccnc(C(C)C)c3)c1)=N2
